{"source": "patent US12440493B2", "about": "“Combination therapy for treating cancer comprising substituted piperazines” (Eli Lilly and Company, priority 2020, dated 2025)", "key": {"[1]": {"tested_on": "IDH1(R132H) primary human AML cells", "experiment": "AML clearance in peripheral blood (flow cytometry, % hCD33+hCD45+ of total white cells), human AML PDx models in NSG mice", "assay_type": "in vivo", "settings": "for AML clearance (% hCD33 + hCD45+ (of total white cells)): 2 mg/kg Cytarabine, IP, (QDx5, rest2)X2) 14 days off)x2, each value one animal, 2 mg/kg", "description": "(§1) Compounds and Formulation. For in vivo studies, each test article is prepared at an appropriate concentration with vehicle. […] Compound A is prepared fresh at the appropriate concentrations with vehicle every 7 days and stored at 4° C. between doses. […] Cytarabine is prepared fresh weekly by dilution with sterile saline from stock solution of Cytarabine (injection 20 mg/mL, (Pfizer injectables')). Azacitidine (Sigma, Lot #MKBR7212) is formulated in sterile water and is prepared fresh daily immediately before dosing. In vivo human AML PDx models. […] Two models are used in the studies: […] As needed, splenocytes from tumor-bearing mice are used to propagate and expand the models, as described. Each test article is prepared as described above at an appropriate concentration with vehicle to give animals the doses tested in this study at a dosing volume of 10 μL/gram body weight. Mice receiving Compound A (PO, QD) are treated at the indicated doses for the duration of the study. The combination agents are dosed as follows: […] Treated mice are assessed in comparison to vehicle treated and naïve (non-tumor bearing) control mice. Body weight is recorded twice per week. […] AML PDx model propagation. […] Spleens are processed and splenocytes isolated as described below. Two hundred μL per subject of the splenocyte prep is injected IV (intravenous, tail vein) into recipient NSG mice. […] Once engraftment is confirmed, the mice are monitored biweekly until ready to be put on study. […] Submandibular blood is collected. Spleen/Splenocyte Processing and Prep. After excision, a spleen is weighed, and […] is placed in a standard sterile 15 mL polypropylene conical tube containing PBS, and placed on ice. […] The spleen is placed in ice cold sterile PBS in a 15 mL collection tube. The spleen is removed from the collection tube and placed in a 100 micron 50 mL conical tube cell strainer (BD Falcon #352360). The spleen is processed by gentle rubbing of the spleen tissue against the surface of the cell strainer with the end of a 5 mL syringe plunger in a circular motion. The surface of the strainer is rinsed with 10 mL room temperature sterile DPBS (HyClone SH30028) 3 times during the process. […] The cell pellet is collected by centrifugation (300×g) and washed three times with 30 mL sterile DPBS. The cells are counted and resuspended in DPBS at the desired implant concentration. Bone Marrow Collection. […] Flow cytometry analysis of human white cells. Submandibular blood samples from in vivo studies are collected. Fluor-conjugated antibody stains are added according to the manufacturer's instructions (anti-human CD33-PE (clone WM53, BD Cat #555450), anti-human CD14-APC (clone MφpP9, BD Cat #340436), anti-human CD15-V450 (clone HI98, BD Cat #561584), anti-human CD117-BV421 (clone YB5.B8, BD Cat #562434), anti-human […]7 (clone ICRF44, BD Cat #557754), anti-human […]7 (clone HI30, BD Cat #557748), and anti-human CD3-FITC (clone SK7, BD Cat #340542)). The samples are incubated for 30 minutes at room temperature, protected from light. After the incubation, 1.5 mL 1×BD Lyse/Fix (37° C., (BD #558049)) is added to each sample and incubated for 12 minutes at room temperature. The tubes are centrifuged at 300×g for 7 minutes. BD Lyse/Fix solution is aspirated and the cell pellet washed with stain/wash buffer 3 times (1 wash step consisted of: pellet resuspended in 3 mL stain/wash buffer, centrifuged at 300×g, aspirated wash). Fixed cells are then resuspended in 300 to 400 μL stain/wash buffer. Samples are analyzed on a Becton Dickinson FACSVerse Flow cytometer (Cat #651155 Serial #Z6511550447) using standard flow cytometry principles and techniques. Samples are analyzed on the same day as they are stained and fixed. Population gating and data analysis of percent population are performed in the FACSuite software on the FACSVerse cytometer. Percent population values from the data analysis are plotted in Graphpad Prism or in JMP13. […]"}, "[2]": {"tested_on": "IDH1(R132H) primary human AML cells", "experiment": "AML cell differentiation in blood (flow cytometry, % hCD33+hCD11b+ of hCD45+ cells), human AML PDx models in NSG mice", "assay_type": "in vivo", "settings": "for AML cell differentiation (% hCD33 + hCD11b+ (of hCD45+ cells)): 2 mg/kg Cytarabine, IP, (QDx5, rest2)X2) 14 days off)x2, each value one animal, 2 mg/kg", "description": "as §1"}, "[3]": {"tested_on": "IDH1(R132H) primary human AML cells", "experiment": "Bone marrow AML clearance (flow cytometry), human AML PDx models in NSG mice", "assay_type": "in vivo", "description": "as §1"}, "[4]": {"tested_on": "2-HG production", "experiment": "Plasma 2-HG inhibition (LC-MS metabolite analysis in plasma of AML PDx model)", "assay_type": "in vivo, human"}, "[5]": {"settings": "2 mg/kg Cytarabine, IP, (QDx5, rest2)X2) 14 days off) × 2, each line one animal"}, "[6]": {"settings": "2 mg/kg Cytarabine, IP, (QDx5, rest2)X2) 14 days off)x2, each line one animal"}}, "note": "“And” between values parts separate entries of the source, which are not always exact repeats. Equal entries are not always repeated.", "data": [{"smiles": "Nc1ccn([C@@H]2O[C@H](CO)[C@@H](O)[C@@H]2O)c(=O)n1", "note": "[Cytarabine, reference compound]", "values": [{"measurement": "AML clearance (% hCD33 + hCD45+ (of total white cells))", "setting": "[1]; Treatment day 18", "result": "8.04% and 3.22% and 3.24% and 8.64% and 3.23% and 3.50% and 4.40%"}, {"measurement": "AML clearance (% hCD33 + hCD45+ (of total white cells))", "setting": "[1]; Treatment day 34", "result": "9.07% and 2.02% and 3.5% and 2.54% and 1.79% and 2.04%"}, {"measurement": "AML clearance (% hCD33 + hCD45+ (of total white cells))", "setting": "[1]; Treatment day 47", "result": "8.25% and 8.31% and 5.29% and 4.92% and 2.29% and 4.71% and 5.51%"}, {"measurement": "AML clearance (% hCD33 + hCD45+ (of total white cells))", "setting": "[1]; Treatment day 61", "result": "17.63% and 29.86% and 14.99% and 42.59% and 15.49% and 29.04% and 29.58%"}, {"measurement": "AML clearance (% hCD33 + hCD45+ (of total white cells))", "setting": "[1]; Treatment day 75", "result": "56.57% and 60.59% and 22.85% and 59.75% and 36.77% and 44.17%"}, {"measurement": "AML clearance (% hCD33 + hCD45+ (of total white cells))", "setting": "[1]; Treatment day 89", "result": "76.67% and 78.11% and 57.04% and 81.53% and 79.57% and 68.92%"}, {"measurement": "AML clearance (% hCD33 + hCD45+ (of total white cells))", "setting": "[1]; Treatment day −3", "result": "21.32% and 14.8% and 13.68% and 21.94% and 21.7% and 20% and 17.15%"}, {"measurement": "% peripheral blood AML cells (treatment group value)", "setting": "[1]; day 47, group C: cytarabine (2 mg/kg), vehicle 86%", "result": 5.2, "unit": "%"}, {"measurement": "AML cell differentiation (% hCD33 + hCD11b+ (of hCD45+ cells))", "setting": "[2]; Treatment day 18", "result": "15.93% and 18.69% and 13.00% and 11.66% and 14.07% and 10.70% and 11.81%"}, {"measurement": "AML cell differentiation (% hCD33 + hCD11b+ (of hCD45+ cells))", "setting": "[2]; Treatment day 34", "result": "37.13% and 33.07% and 31.02% and 31.17% and 33.03% and 37.1%"}, {"measurement": "AML cell differentiation (% hCD33 + hCD11b+ (of hCD45+ cells))", "setting": "[2]; Treatment day 47", "result": "8.3% and 7.84% and 7.69% and 5.82% and 16.79% and 5.09% and 7.21%"}, {"measurement": "AML cell differentiation (% hCD33 + hCD11b+ (of hCD45+ cells))", "setting": "[2]; Treatment day 61", "result": "9.5% and 8.65% and 9.29% and 6.94% and 10.6% and 7.78% and 8.46%"}, {"measurement": "AML cell differentiation (% hCD33 + hCD11b+ (of hCD45+ cells))", "setting": "[2]; Treatment day 75", "result": "5.65% and 7.65% and 11.09% and 11.48% and 10% and 10.46%"}, {"measurement": "AML cell differentiation (% hCD33 + hCD11b+ (of hCD45+ cells))", "setting": "[2]; Treatment day 89", "result": "8.75% and 10.17% and 8.87% and 18.02% and 12.49% and 11.08%"}, {"measurement": "AML cell differentiation (% hCD33 + hCD11b+ (of hCD45+ cells))", "setting": "[2]; Treatment day −3", "result": "16.46% and 20.43% and 14.95% and 8.62% and 13.39% and 10.09% and 12.17%"}, {"measurement": "% AML cell differentiation (treatment group value)", "setting": "[2]; day 47, group C: cytarabine (2 mg/kg), vehicle 10%", "result": 8, "unit": "%"}, {"measurement": "Bone Marrow AML Clearance: % hCD33 + hCD45+ (% of white cells)", "setting": "[3]; [5]", "result": "64.38% and 75.48% and 39.66% and 80.32%"}, {"measurement": "Bone Marrow AML Clearance: % hCD45+ (% of white cells)", "setting": "[3]; [5]", "result": "71.88% and 78.06% and 44.54% and 80.75%"}, {"measurement": "% human AML cells in bone marrow (of white cells; lower = more clearance)", "setting": "[3]; group C: cytarabine (2 mg/kg), vehicle 94%", "result": 63, "unit": "%"}, {"measurement": "% Inhibition of 2-HG (plasma)", "setting": "[4]; [6]", "result": "78.844% and 68.361% and 88.982% and 79.768% and 71.68% and 76.685% and 68.331%"}, {"measurement": "Naive Subtracted 2-HG (plasma)", "setting": "[4]; [6]", "result": "2.348 µM and 3.512 µM and 1.223 µM and 2.246 µM and 3.143 µM and 2.588 µM and 3.515 µM"}, {"measurement": "Plasma 2-HG", "setting": "[4]; [6]", "result": "3.256 µM and 4.42 µM and 2.131 µM and 3.154 µM and 4.051 µM and 3.496 µM and 4.423 µM"}, {"measurement": "% plasma 2-HG (treatment group value)", "setting": "[4]; group C: cytarabine (2 mg/kg), vehicle 100%", "result": 24, "unit": "%"}]}]}
